This is an account of results in ChEMBL document CHEMBL1135798, “Structure-activity relationships of the antimalarial agent artemisinin. 6. The development of predictive in vitro potency models using CoMFA and HQSAR methodologies” (2002).

The subject of the assay is Plasmodium falciparum. In words: Antimalarial activity against chloroquine-resistant, mefloquine-sensitive Plasmodium falciparum W2. The format is functional.
As for `COC(=O)c1ccccc1S(=O)(=O)OCC[C@@H]1CCC[C@@H]2CC[C@@]3(C)OO[C@]21[C@@H](OC)O3`, the “Log RA” value is reported as -0.87. On to `C[C@@H]1CC[C@@H]2[C@]34OO[C@](C)(CC[C@@H]13)O[C@H]4OC(=O)[C@@]21CCC1C[Si](C)(C)C` (stereo not given in full), for which the “Log RA” value is -1.24. `CO[C@H]1O[C@@]2(C)CC[C@H]3CCC[C@@H](CCOS(=O)(=O)c4cccc5c(N(C)C)cccc45)[C@]31OO2`: the “Log RA” value stood at 0.03.

Take `CC(=O)Oc1ccc([C@@H](C)O[C@H]2O[C@@H]3O[C@@]4(C)CC[C@H]5[C@H](C)CC[C@@H]([C@H]2C)[C@@]35OO4)cc1`: the “Log RA” value was 0.68. For `CC(C)C[C@@]12CC[C@H]3[C@H](C)CC[C@H]4CCO[C@H](O1)[C@]43O2`, the “Log RA” value is reported as -4.

As for `CO[C@H]1O[C@@]2(C)CC[C@H]3CCC[C@@H](CCOS(=O)(=O)c4ccc(C)cc4)[C@]31OO2`, the “Log RA” value came to 0.2. Consider `C[C@@H]1CC[C@H]2[C@@H](CCCc3ccc(Cl)cc3)C(=O)O[C@@H]3O[C@@]4(C)CC[C@@H]1[C@]32OO4`, for which the “Log RA” value came out at 1.37. The value for `CO[C@]1(C)CC[C@H]2[C@H](C)CCC[C@]2(C=O)OO1` was -3.3; that for `CCOC1O[C@@H]2O[C@@]3(C)CC[C@H]4[C@H](C)CC[C@H]([C@@]24OO3)[C@@]1(C)O` (stereo not given in full) was -1.13; that for `CO[C@H]1O[C@@]2(C)CC[C@H]3CCC[C@@H](CCOCc4ccccc4)[C@]31OO2` was 0.75. In the case of `CCCC[C@@]12CC[C@H]3[C@H](C)CC[C@H]4CC(=O)O[C@H](O1)[C@]43OO2`, the “Log RA” value is reported as -0.74. Regarding `C[C@@]12CC[C@H]3CCC[C@H]4CC(=O)O[C@H](O1)[C@@]34OO2`, the “Log RA” value is given as -0.36. As for `CC(C)CN1C(=O)C[C@@H]2CC[C@@H](C)[C@@H]3CC[C@@]4(C)OO[C@@]23[C@H]1O4`, the “Log RA” value stood at 0.02. As for `CO[C@H]1O[C@@]2(C)CC[C@H]3CCCC[C@]31OO2`, the figure is -0.31; as for `CC[C@@]12CC[C@H]3[C@H](C)CC[C@H]4CC(=O)O[C@H](O1)[C@]43O2`, -4; as for `CCO[C@H]1O[C@@H]2O[C@@]3(C)CC[C@H]4C(C)C(F)(F)C[C@@H]([C@H]1C)[C@@]24OO3` (stereo not given in full), 0.19. With `C[C@@H]1CC[C@H]2C(=O)C(=O)O[C@@H]3O[C@@]4(C)CC[C@@H]1[C@]32OO4`, the “Log RA” value is given as -2.47.

`C[C@@H]1CC[C@H]2CCO[C@@H]3O[C@@]4(C)CC[C@@H]1[C@@]23OO4`: the “Log RA” value is given as 0.28.

As for `CCOC(=O)C[C@@H](O[C@H]1O[C@@H]2O[C@@]3(C)CC[C@H]4[C@H](C)CC[C@@H]([C@H]1C)[C@@]24OO3)c1ccc([N+](=O)[O-])cc1`, the “Log RA” value is 0.9. Regarding `COC(=O)CCOC1O[C@@H]2O[C@@]3(C)CC[C@H]4[C@H](C)CC[C@@H]([C@H]1C)[C@@]24OO3` (stereo not given in full), the “Log RA” value is recorded as 0.1. For the compound `COC(=O)C[C@@H](C)OC1O[C@@H]2O[C@@]3(C)CC[C@H]4[C@H](C)CC[C@@H]([C@H]1C)[C@@]24OO3` (stereo not given in full), the “Log RA” value stood at 1.7. The value for `C[C@@H]1CC[C@H]2[C@H](C)C(=O)O[C@@H]3O[C@@]4(C)CC[C@@H]1[C@]32OO4` was -0.17; that for `COc1ccc([C@@]23CCC[C@](c4ccc(OC)cc4)(CC2)OO3)cc1` was -0.67; that for `C[C@@H]1CC[C@H]2CC(=O)N(C)[C@@H]3O[C@@]4(C)CC[C@@H]1[C@@]23OO4` was 0.7.

Take `CC(C)[C@H]1C(=O)O[C@@H]2O[C@@]3(C)CC[C@H]4[C@H](C)CC[C@]1(C)[C@@]24OO3`: the “Log RA” value was -0.04. With `CCCC[C@H]1C(=O)O[C@@H]2O[C@@]3(CCC(=O)OCC)CC[C@H]4[C@H](C)CC[C@@H]1[C@@]24OO3`, the “Log RA” value is listed as -1.36. For the compound `CO[C@H]1OC2(C)CC[C@H]3CCC[C@@H](CCOCc4ccc(F)cc4)C31OO2` (stereo not given in full), the “Log RA” value stood at 0.38. Consider `CC(C)CC[C@H]1C(=O)O[C@@H]2O[C@@]3(C)CC[C@H]4[C@H](C)CC[C@@H]1[C@@]24O3`, for which the “Log RA” value is reported as -4. Turning to `CC(=O)Oc1ccc([C@H](C)O[C@H]2O[C@@H]3O[C@@]4(C)CC[C@H]5[C@H](C)CC[C@@H]([C@H]2C)[C@@]35OO4)cc1`, the “Log RA” value came out at 0.68. `CCCC[C@H]1C(O)O[C@@H]2O[C@@]3(C)CC[C@H]4[C@H](C)CC[C@@H]1[C@@]24OO3` (stereo not given in full): the “Log RA” value worked out at 0.96. As for `CO[C@H]1O[C@]2(C)OO[C@]13[C@H](CCO)CCC[C@@H]3C[C@@H]2C`, the “Log RA” value stood at 0.23.

In the case of `CCC(=O)OCC(CC)(CC)OOC(C)(C)C`, the “Log RA” value is recorded as -4.

As to `C[C@@H]1CC[C@H]2CCO[C@@H]3O[C@@]4(CCc5ccccc5)CC[C@@H]1[C@@]23OO4`, the “Log RA” value is given as -1.7. As for `C[C@@H]1CCC2[C@@H](C)COC3OC(C)(C)OO[C@@]32C1` (stereo not given in full), the figure is -0.8; as for `CCO[C@H]1O[C@@H]2O[C@@]3(C)CC[C@H]4C(C)[C@@H](O)C[C@@H]([C@H]1C)[C@@]24OO3` (stereo not given in full), 0.34; as for `CO[C@@H]1O[C@@]2(C)CC[C@H]3CCC[C@@H](CCOC(=O)N(c4ccccc4)c4ccccc4)[C@]31OO2`, 1.06.

As for `CCCC[C@H]1CO[C@@H]2O[C@@]3(C)CC[C@H]4[C@H](C)CC[C@@H]1[C@@]24OO3`, the “Log RA” value was determined as 1.32.

Regarding `C[C@@H]1CC[C@H]2CCO[C@@H]3O[C@@]4(CCCCc5ccccc5)CC[C@@H]1[C@@]23OO4`, the “Log RA” value was determined as 0.58. In the case of `C[C@@H]1CC[C@H]2CC(=O)O[C@@H]3O[C@H]4CC[C@@H]1[C@@]23OO4`, the “Log RA” value is given as -2.76. Take `CCN(CC)C(=O)OCC[C@@H]1CCC[C@@H]2CC[C@@]3(C)OO[C@]21[C@H](OC)O3`: the “Log RA” value is on record as 0.65.

For the compound `CC1CCO[C@@H]2O[C@@]3(C)CC[C@H]4[C@H](C)CC[C@@H]1[C@@]24OO3` (stereo not given in full), the “Log RA” value was -1.2.

In the case of `C[C@@H]1CC[C@H]2[C@@H](C)C(CC(C)(F)F)O[C@@H]3O[C@@]4(C)CC[C@@H]1[C@]32OO4` (stereo not given in full), the “Log RA” value is on record as -0.17. Take `CC(C)CN1C(=O)[C@H](C)[C@@H]2CC[C@@H](C)[C@@H]3CC[C@]4(C)O[C@@H]1[C@@]32O4`: the “Log RA” value is listed as -4.

As for `CC(C)CCN1C(=O)C[C@@H]2CC[C@@H](C)[C@@H]3CC[C@@]4(C)OO[C@@]23[C@H]1O4`, the “Log RA” value is -0.04. As for `CO[C@@]1(C)CC[C@H]2[C@H](C)CCC[C@]2(C=O)OO1`, the “Log RA” value is on record as -4. The value for `CO[C@@H]1O[C@@]2(C)CC[C@H]3CCCC[C@]31OO2` was -1.04; that for `CC1CO[C@@H]2O[C@@]3(C)CC[C@H]4[C@H](C)CC[C@@H]1[C@@]24OO3` (stereo not given in full) was -0.79; that for `CC1O[C@@H]2O[C@@]3(C)CC[C@H]4[C@H](C)CC[C@@H]1[C@@]24OO3` (stereo not given in full) was -0.64.

On to `C[C@H]1[C@@H](O)O[C@@H]2O[C@@]3(C)CC[C@H]4[C@H](C)CC[C@@H]1[C@@]24O3`, for which the “Log RA” value is on record as -4. For the compound `CC(C)C[C@H]1C(=O)O[C@@H]2O[C@@]3(C)CC[C@H]4[C@H](C)CC[C@@H]1[C@@]24OO3`, the “Log RA” value is on record as -0.55. With `CCOC(=O)CC[C@@]12CC[C@H]3[C@H](C)CC[C@H]4CCO[C@H](O1)[C@]43O2`, the “Log RA” value was -4.

For `C[C@@H]1CC[C@H]2[C@@H](CCCc3ccccc3)CO[C@@H]3O[C@@]4(C)CC[C@@H]1[C@]32OO4`, the “Log RA” value is reported as 1.4. On to `C[C@@]12C[C@H]3CCC[C@H]4CC(=O)O[C@H](O1)[C@@]34OO2`, for which the “Log RA” value was -1.79.

Turning to `CCCN1C(=O)C[C@@H]2CC[C@@H](C)[C@@H]3CC[C@@]4(C)OO[C@@]23[C@H]1O4`, the “Log RA” value is 0.05. Turning to `C[C@@H]1CCC2[C@@H](C)C(=O)OC3OC(C)(C)OO[C@@]32[C@H]1C` (stereo not given in full), the “Log RA” value was -0.86. On to `C=C1C(=O)O[C@@H]2O[C@@]3(C)CC[C@H]4[C@H](C)CC[C@@H]1[C@@]24OO3` [ARTEMISITENE], for which the “Log RA” value is on record as -0.89.

With `C[C@@H]1CC[C@H]2CC(=O)O[C@@H]3O[C@@]4(CCc5ccccc5)CC[C@@H]1[C@@]23OO4`, the “Log RA” value is on record as -2. As to `COC(=O)C[C@H](C)OC1O[C@@H]2O[C@@]3(C)CC[C@H]4[C@H](C)CC[C@@H]([C@H]1C)[C@@]24OO3` (stereo not given in full), the “Log RA” value is 0.87. The value for `C[C@@H]1CC[C@H]2[C@@H](C)C(OC(C)(C)C)O[C@@H]3O[C@@]4(C)CC[C@@H]1[C@]32OO4` (stereo not given in full) was 0.92; that for `C=CCN1C(=O)[C@H](C)[C@@H]2CC[C@@H](C)[C@@H]3CC[C@@]4(C)OO[C@]32[C@H]1O4` was -0.04; that for `CC(C)CCC[C@H]1C(=O)O[C@@H]2O[C@@]3(C)CC[C@H]4[C@H](C)CC[C@@H]1[C@@]24OO3` was -0.04. As for `COCC[C@@H]1CCC[C@@H]2CC[C@@]3(C)OO[C@]21[C@@H](OC)O3`, the “Log RA” value was -0.39. Consider `C[C@@H]1CC[C@H]2[C@@H](CCCc3ccccc3)C(=O)O[C@@H]3O[C@@]4(C)CC[C@@H]1[C@]32O4`, for which the “Log RA” value is listed as -4. Turning to `CCC[C@H]1C(OCC)O[C@@H]2O[C@@]3(C)CC[C@H]4[C@H](C)CC[C@@H]1[C@@]24OO3` (stereo not given in full), the “Log RA” value was -0.04.

`C[C@H]1[C@@H](O[C@@H](CC(=O)O)c2ccc([N+](=O)[O-])cc2)O[C@@H]2O[C@@]3(C)CC[C@H]4[C@H](C)CC[C@@H]1[C@@]24OO3`: the “Log RA” value is recorded as 0.1.
